Assay results: US12251373B2, “Compounds and methods of treating retinal degeneration” (CASE WESTERN RESERVE UNIVERSITY, priority 2017, dated 2025)

Columns and labels:
[1] = Metabolic stability in mouse liver microsomes; assay type: in vitro ADME; conditions: 5 μM, with NADPH, vs verapamil
Description: A standard metabolic stability assay was performed in the presence of mouse or human liver microsomes. YC-001 (5 μM) was incubated with the microsomes (0.125 mg mL^−1) resuspended in 0.2 mL of PBS buffer, pH 7.4 composed of 10 mM Na2HPO4, 1.8 mM KH2PO4, 137 mM NaCl, and 2.7 mM KCl. The enzymatic reaction to produce oxidized metabolites was initiated by addition of NADPH (1 mM). Samples were incubated at 37° C. for up to 240 min. Incubation without the cofactor was conducted in parallel to assess NADPH-independent clearance. The reactions were stopped with 0.2 mL of methanol followed by 0.3 mL chloroform. Residual YC-001 was extracted by vigorous shaking. To facilitate phase separation, the samples were spun down for 2 min, 15,000×g. The chloroform fraction was collected, dried down, and the extracted organic compounds were redissolved in 0.2 mL of methanol. To quantify YC-001, the samples were injected onto an Eclipse XDB-C18 column (4.6×150 mm, 5 μm) (Agilent Technologies) equilibrated with solvent composed of 30% acetonitrile in water (v/v), and 0.1% formic acid. YC-001 was eluted in a gradient of acetonitrile in water (30-100%) developed within 15 min at a flow rate of 1 mL min^−1, detected at 350 nm, and quantified by correlating peak areas with known quantities of an original synthetic standard. […]

[2] = test system: S. typhimurium TA1535, TA97a, TA98, TA100 and E. coli WP2; assay: Micro Ames test; conditions: five bacteria strains, with or without S9
Description: To determine the potential genotoxicity of YC-001, a Micro Ames test was performed by the Charles River Laboratories, Inc. The S9 microsomal fraction was obtained from Moltox Molecular Toxicology, Inc. (Boone, NC, USA). A premixture was prepared including 25 μL of S9 mix (10% v/v S9 fraction in 8 mM MgCl2, 33 mM KCl, 100 mM sodium phosphate buffer, pH 7.4, +S9) or phosphate buffer (0.2 M sodium phosphate, pH 7.4, 0S9), 5 μL of bacterial culture (>1000×10^6 bacteria mL^−1) and 100 μL of molten top agar supplemented with 0.05 mM biotin and minimal histidine (0.05 mM) and minimal tryptophan (0.05 mM). The 24-well plates were prepared by adding 1.3 mL of minimal bottom agar (1.3% agar, Vogel-Bonner medium E and 0.25% glucose) to each well. A 10 μL aliquot of YC-001 working solution/negative/positive control was added to each well followed by addition of 130 μL of the premixture. The plates kept on a leveled surface for 1 h while the top agar solidified, then were incubated at 37° C. for 72 h. After this period, plates were stored at 4° C. before revertant colony counts were manually recorded using an inverted microscope. […]

## O=C1OCC(c2ccc(Cl)s2)=C1c1cccs1 [YC-001]
[1]
  initial clearance in liver microsomes: even higher initial clearance
[2]
  Ames bacterial mutation test result: negative
